Measured values published in paper PMC11640942, “The Role of Medium Polarity in the Efficiency of Albumin Binding with Hydrophobic Ligands: Experimental Studies and a Molecular Dynamics Investigation” (International Journal of Molecular Sciences, 2024).
In brackets after ≈: the same amount, converted by molar mass. Where two headings read alike, the source gives them in different places.

Key:
[1] = target: T1, human serum albumin (HSA) (Homo sapiens, UniProt P02768); experiment: Time-resolved fluorescence (average lifetime) of DPH, free and complexed with HSA
T1 construct: purchased Sigma-Aldrich Chemical Co. (St. Louis, MO, USA)
T1 sequence (P02768 25-609): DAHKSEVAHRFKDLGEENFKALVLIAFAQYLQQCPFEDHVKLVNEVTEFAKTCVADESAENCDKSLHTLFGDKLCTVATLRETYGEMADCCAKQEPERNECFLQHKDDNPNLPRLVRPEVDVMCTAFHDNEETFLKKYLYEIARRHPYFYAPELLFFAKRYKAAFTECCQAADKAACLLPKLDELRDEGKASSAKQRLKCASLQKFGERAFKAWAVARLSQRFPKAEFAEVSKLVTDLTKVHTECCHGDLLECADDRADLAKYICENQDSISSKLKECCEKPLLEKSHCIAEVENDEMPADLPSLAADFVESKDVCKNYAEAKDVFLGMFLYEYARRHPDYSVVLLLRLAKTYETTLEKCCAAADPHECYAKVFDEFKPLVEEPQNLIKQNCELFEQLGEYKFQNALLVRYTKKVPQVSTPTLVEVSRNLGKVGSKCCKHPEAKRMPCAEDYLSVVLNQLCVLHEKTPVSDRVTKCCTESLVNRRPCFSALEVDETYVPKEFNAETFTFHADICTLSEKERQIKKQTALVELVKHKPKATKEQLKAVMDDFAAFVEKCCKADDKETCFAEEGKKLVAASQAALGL
Method: The measurements were performed using a mini-tau filter-based fluorescence lifetime spectrometer coupled to a Time-Correlated Single Photon Counting (TCSPC) system (Edinburgh Instruments, Livingston, UK). The excitation was performed using a 370 ± 10 nm picosecond pulsed laser, and the emission was using a […] interference filter. The fluorescence decays were fitted using the multi-exponential decay model, Equation (5), and the average lifetime <τ> was calculated using Equation (6). The quality of the fit was assessed by χ^2 values and residuals. […] (5) IT=∑i=1nfie^−T/τi (6) <τ>=∑i=1nfiτi

[2] = target: T1, human serum albumin (HSA); experiment: Binding constants of DPH and OG with HSA by increase in the probe's fluorescence (titration with HSA)
Method: The slit widths were set at 10 nm for both excitation and emission wavelengths, and a 3 mL quartz cuvette with a 10 mm path length and that was magnetically stirred was used during the measurements. The experiments were performed in pure water or solutions containing 1.0 mol L^−1 NaCl, 10 and 20% (w/w) of 1,4-dioxane. […] After each addition, the mixtures were incubated for 2 min before the fluorescence measurements. Equation (2) was applied to determine the binding constant. […] The association constant (Ka) was calculated as 1/Kd. The same experimental protocol was used to determine the binding constant with OG. In this case, the fixed amount of OG was 5.0 µmol L^−1 and HSA 0–25.0 µmol L^−1. The excitation was set at 305 nm, and the emission was 320 to 450 nm. The non-linear fitting was obtained using the GraphPad Prism version 8.00 for Windows (GraphPad Software, San Diego, CA, USA). (2) F−F0/F∞−F0=L+[P]+Kd−L+[P]+Kd)^2−4[L][P]/2[L]

[3] = cited from earlier work
[4] = cited from earlier work; remark: listed apart in the source
[5] = target: T1, human serum albumin (HSA); experiment: Binding of quercetin or rutin with HSA by quenching of the protein's intrinsic fluorescence; settings: pure water vs 20% 1,4-dioxane, fit to Equation (3)
Method: The interactions between HSA and quercetin or rutin were evaluated by quenching the intrinsic fluorescence of the protein. The excitation was set at 295 nm, and the emission at 310 to 410 nm. […] After each addition of the ligands, the mixtures were incubated for 2 min before the fluorescence measurements. […] Since a 1:1 complex was assumed, n was set as 1. Therefore, Kd and Φ were treated as the fitting parameters in the non-linear least-squares analysis. Before determining the binding constants, the fluorescent intensities were corrected for the inner filter effect (Equation (4)) caused by the attenuation of the excitation and emission signals provoked by the light absorption of the flavonoids. Fcorr and Fobs are the corrected and observed fluorescence. Abex and Abem are the absorptions of the mixture at excitation and emission wavelength, respectively. The absorbance spectra were measured using a Perkin Elmer Lambda 35 UV-visible spectrophotometer (Shelton, CT, USA), and the fluorescence spectra were obtained using a Perkin Elmer LS 55 spectrofluorometer (Shelton, CT, USA). (3) Fratio=1-Φ[([…])/2nP0] (4) Fcorr=Fobs×10^Abex+Abem/2

[6] = 1,4-dioxane 0% (pure water), 25 °C, fit to Equation (2), read-out: association constant Ka (converted)
[7] = 1,4-dioxane 20% w/w, 25 °C, fit to Equation (2), read-out: association constant Ka (converted)

Q: What does the source list for C(=CC=Cc1ccccc1)C=Cc1ccccc1 [DPH, 1,6-diphenyl-1,3,5-hexatriene]?
A: average fluorescence lifetime ([1]; 20% 1,4-dioxane with HSA added): 7.1 nanoseconds; average fluorescence lifetime ([1]; 20% 1,4-dioxane, no protein): 2.6 nanoseconds; average fluorescence lifetime ([1]; pure 1,4-dioxane): 7.8 nanoseconds; Kd [2, 6]: 0.505 µM; Kd ([2]; 1,4-dioxane 10% w/w, 25 °C, fit to Equation (2), read-out: association constant Ka (converted)): 1.89 µM; Kd [2, 7]: 5.88 µM; HSA concentration needed to reach saturation ([2]; 1,4-dioxane (20%)): 10 µM; Kd ([2]; Figure 4, printed as (10%) 1,4-dioxane, read-out: Ka (means and SD of triplicates) (converted)): 2.22 µM; Kd ([2]; Figure 4, printed as (20%) 1,4-dioxane, read-out: Ka (means and SD of triplicates) (converted)): 0.485 µM; Kd ([2]; NaCl 1.0 mol L^−1 (dielectric constant 69.3), read-out: binding constant Ka (converted)): 4.35 µM; lower HSA concentration at saturation when the solvent was absent ([2]; no solvent vs 1,4-dioxane): 5 fold; HSA concentration needed to reach saturation ([2]; pure water): 2.0 µM; Kd ([2]; pure water (dielectric constant 80.3), NaCl comparison experiment, read-out: binding constant Ka (converted)): 1.01 µM

Q: Which results are given for CCCCCCCCOC(=O)c1cc(O)c(O)c(O)c1 [OG, octyl gallate]?
A: Kd [2, 6]: 0.192 µM; Kd [2, 7]: 4.55 µM; increase of binding constant in pure water compared to 1,4-dioxane ([2]; pure water vs 20% 1,4-dioxane): 25 fold

Q: Which water solubility [3] does the source give for O=c1c(O)c(-c2ccc(O)c(O)c2)oc2cc(O)cc(O)c12 [quercetin] here?
A: The water solubility was 60 µg/mL (≈ 199 µM).

Q: And the logP [4]?
A: The logP was 0.35.

Q: What about the “effect of 1,4-dioxane on binding strength” value [5] of the same compound?
A: Its value is “decreased”.

Q: With C[C@@H]1O[C@@H](OC[C@H]2O[C@@H](Oc3c(-c4ccc(O)c(O)c4)oc4cc(O)cc(O)c4c3=O)[C@H](O)[C@@H](O)[C@@H]2O)[C@H](O)[C@H](O)[C@H]1O [rutin] as the compound, how does the logP [4] read?
A: Its logP is −2.28.

Q: And the “effect of 1,4-dioxane on binding strength” value [5]?
A: The value was “not”.
